According to the supplement of paper PMC13380429:

Legend:
Conditions in all cases: 72 h
Caco-2 [1] = experiment: cell viability relative to DMSO; higher = less toxic
Calu-3 [2] = experiment: as above
HepG2 [3] = experiment: as above
U2OS [4] = experiment: as above
Vero E6 [5] = experiment: as above
Caco-2 [6] = experiment: relative viability EC50 (midpoint between 100% and the lowest measured viability); higher = less toxic
Calu-3 [7] = experiment: as above
HepG2 [8] = experiment: as above
U2OS [9] = experiment: as above
Vero E6 [10] = experiment: as above
Caco-2 [11] = experiment: drug sensitivity score (DSS) for viability; higher = more toxic; extreme values may be limits of the assay
Calu-3 [12] = experiment: as above
HepG2 [13] = experiment: as above
U2OS [14] = experiment: as above
Vero E6 [15] = experiment: as above

Structure (SMILES)	cell viability (Caco-2 [1]; 1 nM) [%]	cell viability (Caco-2 [1]; 10 nM) [%]	cell viability (Caco-2 [1]; 100 nM) [%]	cell viability (Caco-2 [1]; 1000 nM) [%]	cell viability (Caco-2 [1]; 10000 nM) [%]	cell viability (Calu-3 [2]; 1 nM) [%]	cell viability (Calu-3 [2]; 10 nM) [%]	cell viability (Calu-3 [2]; 100 nM) [%]	cell viability (Calu-3 [2]; 1000 nM) [%]	cell viability (Calu-3 [2]; 10000 nM) [%]	cell viability (HepG2 [3]; 1 nM) [%]	cell viability (HepG2 [3]; 10 nM) [%]	cell viability (HepG2 [3]; 100 nM) [%]	cell viability (HepG2 [3]; 1000 nM) [%]	cell viability (HepG2 [3]; 10000 nM) [%]	cell viability (U2OS [4]; 1 nM) [%]	cell viability (U2OS [4]; 10 nM) [%]	cell viability (U2OS [4]; 100 nM) [%]	cell viability (U2OS [4]; 1000 nM) [%]	cell viability (U2OS [4]; 10000 nM) [%]	cell viability (Vero E6 [5]; 1 nM) [%]	cell viability (Vero E6 [5]; 10 nM) [%]	cell viability (Vero E6 [5]; 100 nM) [%]	cell viability (Vero E6 [5]; 1000 nM) [%]	cell viability (Vero E6 [5]; 10000 nM) [%]	relative viability EC50 (Caco-2 [6]) [µM]	relative viability EC50 (Calu-3 [7]) [µM]	relative viability EC50 (HepG2 [8]) [µM]	relative viability EC50 (U2OS [9]) [µM]	relative viability EC50 (Vero E6 [10]) [µM]	drug sensitivity score (Caco-2 [11])	drug sensitivity score (Calu-3 [12])	drug sensitivity score (HepG2 [13])	drug sensitivity score (U2OS [14])	drug sensitivity score (Vero E6 [15])
CCCCCC(O)CCCC(=O)O (stereo not given)	95.3	79	82.1	93.7	101	98.6	103	101	95.9	99.4	90.7	95.5	85.8	98.5	92.5	98.1	97.8	100	95.8	102	86.1	102	95.1	95.3	90.2	> 10	> 10	> 10	> 10	> 10	0.5	0	0	0	0
CCCN(CC1CC1)c1nc(C)nc(Nc2c(Cl)cc(Cl)cc2Cl)c1Cl	93.5	97.8	90	96.2	89.8	85.1	95.1	93.8	96.8	95.5	95.4	94	106	103	97.2	100	97.3	103	101	99.3	98.3	96.7	94.9	96.8	106	> 10	> 10	> 10	> 10	> 10	0	0	0	0	0
CCn1c(-c2nonc2N)nc2cncc(CNC3CCNCC3)c21	93.6	95.1	105	105	80.4	94	103	102	120	114	94.8	104	89.1	80.6	79.7	93.9	98.2	96.7	97.3	76.3	93.3	104	101	93.8	94.1	> 10	> 10	> 10	> 10	> 10	0.4	0	3.9	1.3	0
CN1CCN(C(=O)c2nc3ccc(Cl)cc3[nH]2)CC1	106	100	96.5	92.2	90.9	100	99.9	87.9	96.9	101	104	107	96.7	106	93.8	105	97.1	103	98.1	101	97.9	106	97.8	102	104	> 10	> 10	> 10	> 10	> 10	0	0	0	0	0
COC(=O)Nc1ccc2[nH]cc(CCNC(C)=O)c2c1	96.3	95.8	94.6	98.9	105	103	96.6	98.1	97.8	97.8	102	94.6	98.3	96.4	91	98.2	104	98	97.2	96.6	99	102	103	95.3	99	> 10	> 10	> 10	> 10	> 10	0	0	0	0	0
COc1cc(Br)c(S(=O)(=O)Nc2ccc(Cl)c(O[C@@H]3CCN(C)C3)c2)cc1OC	104	93.7	99.7	94.9	90	80.8	99.2	90.3	94.3	85	97.6	98.3	106	91.8	36.3	95.2	97.4	88.5	97.7	95	101	93.6	96.1	97.8	108	> 10	> 10	2.13	> 10	> 10	0	0	4.9	0	0
COc1cc(N2CCOCC2)ccc1Nc1ncc(Cl)c(Nc2ccccc2NS(C)(=O)=O)n1	99.5	91.7	94.1	80.8	35.6	103	84.2	84.2	59.6	19.6	103	101	94.7	70.6	23.1	102	97.2	98.8	75	27.4	99.1	110	99.1	76.9	15.6	1.49	0.667	1.29	1.29	1.47	6.1	10.4	7.8	7.6	8.2
COc1ccc(/C=C/CCCCOc2ccc(C(=O)c3cccc(C(=O)O)c3)cc2CCC(=O)O)cc1	96.6	94	102	102	95.3	102	84.6	102	100	111	102	95.3	109	110	106	95.8	96.2	96.3	100	98.7	93.9	96.3	100	94.4	99	> 10	> 10	> 10	> 10	> 10	0	0	0	0	0
COc1ccc(NS(=O)(=O)c2sc3ccc(Cl)cc3c2C)cc1N1CCNCC1	98.9	98.7	104	102	96.1	104	105	108	105	98.1	108	104	106	109	87.4	99.9	96	97.2	98.5	94.5	93.3	98	97.6	94.4	103	> 10	> 10	> 10	> 10	> 10	0	0	0	0	0
Cc1cc(-c2nc(C(=O)Nc3cn(C4CCOCC4)nc3C(N)=O)co2)ccn1	97.5	94.4	101	98.2	93.3	109	97	85.7	95	93.2	99.9	113	88.6	82.9	96.3	99	94.7	99.8	100	99.3	93.5	103	101	93	92.1	> 10	> 10	> 10	> 10	> 10	0	0	2.9	0	0
Cc1ccccc1/N=N/c1ccc(NC(=O)c2ccnn2C)c(C)c1	90.6	94	97.9	93.8	91.5	112	100	97.6	99.3	90.9	107	102	104	91	97.6	96.7	102	100	102	93.2	97.3	92.1	95.2	94.1	108	> 10	> 10	> 10	> 10	> 10	0	0	0	0	0
Cc1cccn2c(=O)c(/C=C(\C#N)c3nc4ccccc4s3)c(Oc3ccc(F)cc3)nc12	105	96.3	113	115	119	105	97.9	101	104	106	103	99.6	100	99.3	102	98.3	98.2	98.2	103	99.1	103	100	98.9	98.7	95.8	> 10	> 10	> 10	> 10	> 10	0	0	0	0	0
Cc1n[nH]c2ccc(-c3cncc(OC[C@@H](N)Cc4ccccc4)c3)cc12	96.7	102	97.8	92.2	27.3	105	102	93.4	103	41.3	103	95.8	106	53	1.7	99.6	99.8	97.7	88.3	2.8	101	106	96.3	66	5	2.28	3.43	1.04	2.18	1.3	5.3	2.9	11.3	7.3	9.7
O=C(Nc1ccc(Oc2ccc(Cl)cn2)c(Cl)c1)c1ccccn1	98.1	97.8	104	104	93.1	103	108	95.1	98.6	97.7	104	108	109	93.7	99.1	102	105	99.6	104	96.2	101	101	102	96	95.8	> 10	> 10	> 10	> 10	> 10	0	0	0	0	0
O=C(Oc1cc(S(=O)(=O)c2ccccc2)ccc1[N+](=O)[O-])c1ccc(Cl)cc1	103	93.4	92.3	87.5	103	101	97.2	92.5	94.8	106	100	97.2	98.4	97.2	102	96.5	94.9	97.4	94.6	96.9	97.5	104	94.7	101	106	> 10	> 10	> 10	> 10	> 10	0	0	0	0	0
